In PubChem BioAssay (NCI):
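Values below derive from 48-hour exposures of cells grown in 96-well plates, with endpoints linearly interpolated between the two concentrations bracketing the appropriate inhibition level. TGI denotes the concentration required for complete inhibition of growth.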

Columns and labels:
Experiment in all cases: NCI tumour cell line growth inhibition, 48 h
OVCAR-8 ovarian = test system: OVCAR-8 ovarian
HCT-116 colon = test system: HCT-116 colon
SK-MEL-28 melanoma = test system: SK-MEL-28 melanoma
A498 renal = test system: A498 renal
U251 CNS = test system: U251 CNS
SW-620 colon = test system: SW-620 colon
XF 498 CNS = test system: XF 498 CNS
HL-60(TB) leukemia = test system: HL-60(TB) leukemia
MOLT-4 leukemia = test system: MOLT-4 leukemia
NCI-H460 lung = test system: NCI-H460 lung
SN12C renal = test system: SN12C renal
NCI-H226 lung = test system: NCI-H226 lung
CAKI-1 renal = test system: CAKI-1 renal
SK-MEL-5 melanoma = test system: SK-MEL-5 melanoma
SF-539 CNS = test system: SF-539 CNS
DMS 273 small cell lung = test system: DMS 273 small cell lung
LOX IMVI melanoma = test system: LOX IMVI melanoma
SF-295 CNS = test system: SF-295 CNS
ACHN renal = test system: ACHN renal
DMS 114 small cell lung = test system: DMS 114 small cell lung
M19-MEL melanoma = test system: M19-MEL melanoma
UACC-257 melanoma = test system: UACC-257 melanoma
KM20L2 colon = test system: KM20L2 colon
OVCAR-4 ovarian = test system: OVCAR-4 ovarian
HOP-62 NSCLC = test system: HOP-62 NSCLC
SK-OV-3 ovarian = test system: SK-OV-3 ovarian
EKVX NSCLC = test system: EKVX NSCLC
HCT-15 colon = test system: HCT-15 colon
HCC-2998 colon = test system: HCC-2998 colon
LXFL 529 NSCLC = test system: LXFL 529 NSCLC
UACC-62 melanoma = test system: UACC-62 melanoma
A549 NSCLC = test system: A549 NSCLC
RPMI-8226 leukemia = test system: RPMI-8226 leukemia
COLO 205 colon = test system: COLO 205 colon
UO-31 renal = test system: UO-31 renal
DLD-1 colon = test system: DLD-1 colon
SF-268 CNS = test system: SF-268 CNS
CCRF-CEM leukemia = test system: CCRF-CEM leukemia
IGROV1 ovarian = test system: IGROV1 ovarian
M14 melanoma = test system: M14 melanoma
OVCAR-5 ovarian = test system: OVCAR-5 ovarian
SNB-78 CNS = test system: SNB-78 CNS
KM12 colon = test system: KM12 colon
SK-MEL-2 melanoma = test system: SK-MEL-2 melanoma
TK-10 renal = test system: TK-10 renal
NCI-H522 lung = test system: NCI-H522 lung
SR leukemia = test system: SR leukemia
SNB-75 CNS = test system: SNB-75 CNS
RXF 393 renal = test system: RXF 393 renal
SNB-19 CNS = test system: SNB-19 CNS
K-562 leukemia = test system: K-562 leukemia
HOP-92 NSCLC = test system: HOP-92 NSCLC
HT29 colon = test system: HT29 colon
PC-3 prostate = test system: PC-3 prostate
MDA-N = test system: MDA-N
786-0 renal = test system: 786-0 renal
MDA-MB-231 breast = test system: MDA-MB-231 breast
OVCAR-3 ovarian = test system: OVCAR-3 ovarian
MALME-3M melanoma = test system: MALME-3M melanoma
MDA-MB-435 = test system: MDA-MB-435
NCI-H23 lung = test system: NCI-H23 lung
BT-549 breast = test system: BT-549 breast
HS 578T breast = test system: HS 578T breast
HOP-18 NSCLC = test system: HOP-18 NSCLC
T-47D breast = test system: T-47D breast
MCF7 breast = test system: MCF7 breast

Structure (SMILES): O=[N+]([O-])c1ccc(C2=Nc3ccccc3SC(c3ccccc3)C2)cc1 (stereo unspecified)
- TGI (OVCAR-8 ovarian): 40.3 µM
- TGI (HCT-116 colon): 24.2 µM
- TGI (SK-MEL-28 melanoma): 41.6 µM
- TGI (A498 renal): 47.9 µM
- TGI (U251 CNS): 26.3 µM
- TGI (SW-620 colon): 27.8 µM
- TGI (XF 498 CNS): 31.6 µM
- TGI (HL-60(TB) leukemia): 40 µM
- TGI (MOLT-4 leukemia): > 100 µM
- TGI (NCI-H460 lung): 43.9 µM
- TGI (SN12C renal): 32.2 µM
- TGI (NCI-H226 lung): 54 µM
- TGI (CAKI-1 renal): 35.8 µM
- TGI (SK-MEL-5 melanoma): 32.9 µM
- TGI (SF-539 CNS): 40.3 µM
- TGI (DMS 273 small cell lung): 27.5 µM
- TGI (LOX IMVI melanoma): 29.3 µM
- TGI (SF-295 CNS): 46.3 µM
- TGI (ACHN renal): 36.2 µM
- TGI (DMS 114 small cell lung): 32.8 µM
- TGI (M19-MEL melanoma): 31 µM
- TGI (UACC-257 melanoma): 51.6 µM
- TGI (KM20L2 colon): 32.8 µM
- TGI (OVCAR-4 ovarian): 27.3 µM
- TGI (HOP-62 NSCLC): 58.5 µM
- TGI (SK-OV-3 ovarian): 46 µM
- TGI (EKVX NSCLC): 44.3 µM
- TGI (HCT-15 colon): 30.9 µM
- TGI (HCC-2998 colon): 29 µM
- TGI (LXFL 529 NSCLC): 34.8 µM
- TGI (UACC-62 melanoma): 27.3 µM
- TGI (A549 NSCLC): 51.2 µM
- TGI (RPMI-8226 leukemia): 48.4 µM
- TGI (COLO 205 colon): 31.8 µM
- TGI (UO-31 renal): 25.8 µM
- TGI (DLD-1 colon): 48.3 µM
- TGI (SF-268 CNS): 63.3 µM
- TGI (CCRF-CEM leukemia): 37.2 µM
- TGI (IGROV1 ovarian): 33.3 µM
- TGI (M14 melanoma): 36.3 µM
- TGI (OVCAR-5 ovarian): 36.6 µM
- TGI (SNB-78 CNS): 70.9 µM
- TGI (KM12 colon): 32.2 µM
- TGI (SK-MEL-2 melanoma): 33.2 µM
- TGI (TK-10 renal): > 100 µM
- TGI (NCI-H522 lung): 26.7 µM
- TGI (SR leukemia): 45.2 µM
- TGI (SNB-75 CNS): 37.1 µM
- TGI (RXF 393 renal): 40 µM
- TGI (SNB-19 CNS): 32.3 µM
- TGI (K-562 leukemia): 67.6 µM

Structure (SMILES): CC1=C(C(=O)Nc2ccccc2)C(c2ccc(C3C(C(=O)Nc4ccccc4)=C(C)NC(C)=C3C(=O)Nc3ccccc3)cc2)C(C(=O)Nc2ccccc2)=C(C)N1
- TGI (OVCAR-8 ovarian): 11.2 µM
- TGI (HOP-92 NSCLC): 9.78 µM
- TGI (HCT-116 colon): 4.52 µM
- TGI (SK-MEL-28 melanoma): 3.64 µM
- TGI (HT29 colon): 3.77 µM
- TGI (A498 renal): 24 µM
- TGI (U251 CNS): 3 µM
- TGI (SW-620 colon): 5.56 µM
- TGI (XF 498 CNS): 20.5 µM
- TGI (HL-60(TB) leukemia): 7.21 µM
- TGI (MOLT-4 leukemia): 11.6 µM
- TGI (NCI-H460 lung): 8.29 µM
- TGI (SN12C renal): 4.71 µM
- TGI (NCI-H226 lung): 16 µM
- TGI (CAKI-1 renal): 14.4 µM
- TGI (SK-MEL-5 melanoma): 6.22 µM
- TGI (PC-3 prostate): 12.5 µM
- TGI (SF-539 CNS): 5.97 µM
- TGI (DMS 273 small cell lung): 7.24 µM
- TGI (LOX IMVI melanoma): 3.24 µM
- TGI (SF-295 CNS): 7.88 µM
- TGI (ACHN renal): 4.2 µM
- TGI (DMS 114 small cell lung): 17.8 µM
- TGI (M19-MEL melanoma): 22 µM
- TGI (UACC-257 melanoma): 5.06 µM
- TGI (KM20L2 colon): 4.94 µM
- TGI (OVCAR-4 ovarian): 16.1 µM
- TGI (HOP-62 NSCLC): 10.6 µM
- TGI (SK-OV-3 ovarian): 26.2 µM
- TGI (EKVX NSCLC): 10.6 µM
- TGI (MDA-N): 14.5 µM
- TGI (HCT-15 colon): 9 µM
- TGI (786-0 renal): 8.92 µM
- TGI (HCC-2998 colon): 5.74 µM
- TGI (MDA-MB-231 breast): 13.4 µM
- TGI (LXFL 529 NSCLC): 5.34 µM
- TGI (UACC-62 melanoma): 4.09 µM
- TGI (OVCAR-3 ovarian): 14.5 µM
- TGI (A549 NSCLC): 21.8 µM
- TGI (RPMI-8226 leukemia): 13.8 µM
- TGI (MALME-3M melanoma): 4.33 µM
- TGI (COLO 205 colon): 10.6 µM
- TGI (UO-31 renal): 23.1 µM
- TGI (DLD-1 colon): 8.15 µM
- TGI (SF-268 CNS): 5.7 µM
- TGI (MDA-MB-435): 5.83 µM
- TGI (CCRF-CEM leukemia): 12 µM
- TGI (IGROV1 ovarian): 6.94 µM
- TGI (M14 melanoma): 6.46 µM
- TGI (OVCAR-5 ovarian): 17.6 µM
- TGI (NCI-H23 lung): 8.65 µM
- TGI (BT-549 breast): 8.67 µM
- TGI (HS 578T breast): 16.2 µM
- TGI (KM12 colon): 5.01 µM
- TGI (SK-MEL-2 melanoma): 5.06 µM
- TGI (HOP-18 NSCLC): 21.7 µM
- TGI (TK-10 renal): 18.3 µM
- TGI (NCI-H522 lung): 3.14 µM
- TGI (T-47D breast): 16.2 µM
- TGI (SR leukemia): 5.41 µM
- TGI (SNB-75 CNS): 23.7 µM
- TGI (RXF 393 renal): 3.87 µM
- TGI (MCF7 breast): 14.7 µM
- TGI (SNB-19 CNS): 20.5 µM
- TGI (K-562 leukemia): > 53 µM
